Details of data set [1]: species or system mice. Particulars: mouse, in vivo. On the procedure: PND7 control and experimental mice were placed in a clear plastic cone and body temperature maintained by a heating blanket set to 35° C. Heart rate (HR) and oxyhemoglobin saturation (SpO2) were continuously monitored using pulse-oximetry (PhysioSuite, Kent Scientific). Arterial blood was collected by terminal cardiac puncture of the left ventricle from sentinels and pH (pHa) determined using a blood gas machine (ABL800 FLEX Series Radiometer). […] Naïve control animals were left with the dams. Control ‘CON’ animals were exposed to oxygen only. Anesthesia was initiated with 2.4% isoflurane in oxygen for 2 min and tapered down to 1.5% within 15 min. Exposure to 1.5% isoflurane was continued for 3 hours and 45 min (total 4 hours ISO). At the end of the exposure animals were maintained in oxygen on the heating blanket for 10 min then returned to dams. […] Tao and Johns, 2008. Purification of fusion peptides was performed by Creative BioMart (Shirley, N.Y.) and verified by Coomassie blue staining and Western blot analysis and then stored in 10% glycerol/phosphate-buffered saline at −80° C. until use. The Tat-PSD-95 PDZ2WT and MUT plasmids used to generate proteins containing an amino-terminal, in-frame, 11-amino-acid, minimal transduction domain (residues 47-57 of human immunodeficiency virus Tat protein) termed Tat. […] Fang et al., 2003. The NO donor Molsidomine [(N-[ethoxycarbonyl]-3-[4-morpholinosydnomine] (Sigma, St. Louis, Mo.) was injected at 4 mg/kg into mice ip in 100 μL sterile saline as previously described. Control animals were injected ip with the vehicle (saline).

The next data set concerns NR2B. The data set can be described thus: Western blot of hippocampal synaptic fractions: NR2B. It counts as in vivo. Particulars: one day after PND7 mice exposed to isoflurane (1.5% ISO in O2, 4 h). As for the experimental part: (§1) One day after PND7 mice were exposed to isoflurane (1.5% ISO in O2, 4 h), we harvested hippocampal tissues for Western blotting to assess the expression of receptors and MAGUKs. […] (N=9). A *p<0.05 was considered significant. […] Data shown as % actin;
For orientation: Immunoblotting shows a protein as a band on a membrane.

Another data set relates to SAP102. The data set can be described thus: Western blot of hippocampal synaptic fractions: SAP102. It counts as in vivo. Particulars: one day after PND7 mice exposed to isoflurane (1.5% ISO in O2, 4 h). As for the experimental part:
as §1

The test system of another data set is primary neuron cultures. Nature of the data set: Primary neuron cultures, long thin spines and filopodia at DIV7. It counts as cell-based. To be noted: 4 hrs: isoflurane 1.5%, PDZ2WT peptide 1 μM or sevoflurane 2.1%. On the procedure:
Primary neuron cultures were exposed to control gas (25% O2, 5% CO2, bal N2), isoflurane (1.5% ISO in 25% O2, 5% CO2, bal N2), DETA NONOate NO donor 150 μM and sGC inhibitor ODQ 100 μM for 4 hrs. […] MAP2 dendrite marker, green. Drebrin A/E immature spine/filopodia marker, red. Scale bar is 5 μm. FIG. 20B, Density of long thin spines and filopodia at DIV7 among exposed groups analyzed using Imaris 93.1;
MAP2, green. Drebrin, red. Scale bar is 5 μm. FIG. 21B, show the density of long thin spines and filopodia among exposed groups;
Neuron cultures were exposed to control gas (25% O2, 5% CO2, balance N2) or sevoflurane (2.1% ISO in 25% O2, 5% CO2, balanced N2) for 4 hrs. […] Scale bar is 5 μm. FIG. 22B, Density of long thin spines and filopodia among exposed groups; and […]

Another data set concerns neuron cultures. The data set can be described thus: Neuron cultures, synapses (PSD95/Synaptophysin puncta) at DIV14. It counts as cell-based. Particulars: isoflurane exposure at DIV7, stained at DIV14. As for the experimental part: Neuron cultures were transfected with GFP-AAV virus at DIV-4 and were exposed to NO donor (DETA) 150 μM and sGC inhibitor (ODQ) 100 μM for 4 hrs right before exposure to gases at DIV7. Cells were returned back to incubator with half media change every second day. At DIV14, cells were fixed and stained with PSD95 and Synaptophysin. […] Scale bar is 5 μm. FIG. 23B: Synapse were analyzed using puncta analyzer plugin as shown in methods section.

For another data set, the system named is GFP+ neurons. To be noted: early exposure to isoflurane, PND30; Kang et al., 2017; cited from earlier work.
The subject of data set [2] is PSD-95 or PSD-93 and the NMDA receptor or nNOS. Particulars: clinically relevant concentrations; Fang et al., 2003; Tao et al., 2015; cited from earlier work.

Consider `FC(F)OC(Cl)C(F)(F)F` (racemic) [ISO, (RS)-2-chloro-2-(difluoromethoxy)-1,1,1-trifluoroethane], for which, in data set [1], the “arterial blood pH (pHa)” value stood at 7.26±0.05, the “heart rate (HR)” value is on record as 611±84 and the “oxyhemoglobin saturation (SpO2)” value is 93±6. Further, the “amount of NR2B in synaptic fractions” value in the data set on NR2B was “significant increase”. Also, in the data set on SAP102, the “amount of SAP102 in synaptic fractions” value is on record as “significant increase”. Also, the “long thin spines and filopodia at DIV7 after exposure” value with primary neuron cultures is “loss of long thin and filopodia spines”. Further, the “synapses at DIV14 after exposure” value in the data set on neuron cultures is “loss of synapse”. Besides, the “total dendritic length and Sholl analysis of dendritic complexity” value in the data set with GFP+ neurons is “marked overgrowth of dendritic arbors”. For the same compound, the “PDZ domain-mediated protein interactions” value in data set [2] is “can disrupt PDZ domain-mediated protein-protein interactions in vitro and in vivo”.

Source of the values: patent US20220087970A1, “PREVENTION OF ANESTHETIC-INDUCED NEUROCOGNITIVE DYSFUNCTION” (The Johns Hopkins University, priority 2019, published 2022).
